Tests used:
Test in all cases: biochemical
Conditions in all cases: read-out: %Ctrl @ 1000nM
[1] = target: T1, RSK4(Kin.Dom.1-N-terminal) (Homo sapiens, UniProt Q9UK32)
T1 construct: gene RPS6KA6

MAK = MAK (Homo sapiens, UniProt P20794)
DCAMKL2 = target: T2, DCAMKL2 (Homo sapiens, UniProt Q8N568)
T2 construct: gene DCLK2

MAP4K5 = MAP4K5 (Homo sapiens, UniProt Q9Y4K4)
HASPIN = HASPIN (Homo sapiens, UniProt Q8TF76)
EGFR(S752-I759del) = EGFR(S752-I759del) (Homo sapiens, UniProt P00533, DEL752-759)
EPHA4 = EPHA4 (Homo sapiens, UniProt P54764)
MAP3K3 = MAP3K3 (Homo sapiens, UniProt Q99759)
PRKX = PRKX (Homo sapiens, UniProt P51817)
CSNK1G3 = CSNK1G3 (Homo sapiens, UniProt Q9Y6M4)
EPHB1 = EPHB1 (Homo sapiens, UniProt P54762)
MERTK = MERTK (Homo sapiens, UniProt Q12866)
PRKG1 = PRKG1 (Homo sapiens, UniProt Q13976)
CSNK1A1L = CSNK1A1L (Homo sapiens, UniProt Q8N752)
TAOK1 = TAOK1 (Homo sapiens, UniProt Q7L7X3)
FGFR4 = FGFR4 (Homo sapiens, UniProt P22455)
DMPK = DMPK (Homo sapiens, UniProt Q09013)
IGF1R = IGF1R (Homo sapiens, UniProt P08069)
FLT3(D835V) = FLT3(D835V) (Homo sapiens, UniProt P36888, D835V)
NLK = NLK (Homo sapiens, UniProt Q9UBE8)
AAK1 = AAK1 (Homo sapiens, UniProt Q2M2I8)
TIE1 = TIE1 (Homo sapiens, UniProt P35590)
SLK = SLK (Homo sapiens, UniProt Q9H2G2)
EGFR(L747-T751del,Sins) = EGFR(L747-T751del,Sins) (Homo sapiens, UniProt P00533, DEL747-750/T751S)
RET(V804L) = RET(V804L) (Homo sapiens, UniProt P07949, V804L)
CDK2 = CDK2 (Homo sapiens, UniProt P24941)
JNK3 = target: T3, JNK3 (Homo sapiens, UniProt P53779)
T3 construct: gene MAPK10

TESK1 = TESK1 (Homo sapiens, UniProt Q15569)
ERK1 = target: T4, ERK1 (Homo sapiens, UniProt P27361)
T4 construct: gene MAPK3

CAMK1G = CAMK1G (Homo sapiens, UniProt Q96NX5)
PYK2 = target: T5, PYK2 (Homo sapiens, UniProt Q14289)
T5 construct: gene PTK2B

MKK7 = target: T6, MKK7 (Homo sapiens, UniProt O14733)
T6 construct: gene MAP2K7

PIK3CA(C420R) = PIK3CA(C420R) (Homo sapiens, UniProt P42336, C420R)
FLT4 = FLT4 (Homo sapiens, UniProt P35916)
PIKFYVE = PIKFYVE (Homo sapiens, UniProt Q9Y2I7)

Sequence of RET(V804L) (P07949 whole entry V804L): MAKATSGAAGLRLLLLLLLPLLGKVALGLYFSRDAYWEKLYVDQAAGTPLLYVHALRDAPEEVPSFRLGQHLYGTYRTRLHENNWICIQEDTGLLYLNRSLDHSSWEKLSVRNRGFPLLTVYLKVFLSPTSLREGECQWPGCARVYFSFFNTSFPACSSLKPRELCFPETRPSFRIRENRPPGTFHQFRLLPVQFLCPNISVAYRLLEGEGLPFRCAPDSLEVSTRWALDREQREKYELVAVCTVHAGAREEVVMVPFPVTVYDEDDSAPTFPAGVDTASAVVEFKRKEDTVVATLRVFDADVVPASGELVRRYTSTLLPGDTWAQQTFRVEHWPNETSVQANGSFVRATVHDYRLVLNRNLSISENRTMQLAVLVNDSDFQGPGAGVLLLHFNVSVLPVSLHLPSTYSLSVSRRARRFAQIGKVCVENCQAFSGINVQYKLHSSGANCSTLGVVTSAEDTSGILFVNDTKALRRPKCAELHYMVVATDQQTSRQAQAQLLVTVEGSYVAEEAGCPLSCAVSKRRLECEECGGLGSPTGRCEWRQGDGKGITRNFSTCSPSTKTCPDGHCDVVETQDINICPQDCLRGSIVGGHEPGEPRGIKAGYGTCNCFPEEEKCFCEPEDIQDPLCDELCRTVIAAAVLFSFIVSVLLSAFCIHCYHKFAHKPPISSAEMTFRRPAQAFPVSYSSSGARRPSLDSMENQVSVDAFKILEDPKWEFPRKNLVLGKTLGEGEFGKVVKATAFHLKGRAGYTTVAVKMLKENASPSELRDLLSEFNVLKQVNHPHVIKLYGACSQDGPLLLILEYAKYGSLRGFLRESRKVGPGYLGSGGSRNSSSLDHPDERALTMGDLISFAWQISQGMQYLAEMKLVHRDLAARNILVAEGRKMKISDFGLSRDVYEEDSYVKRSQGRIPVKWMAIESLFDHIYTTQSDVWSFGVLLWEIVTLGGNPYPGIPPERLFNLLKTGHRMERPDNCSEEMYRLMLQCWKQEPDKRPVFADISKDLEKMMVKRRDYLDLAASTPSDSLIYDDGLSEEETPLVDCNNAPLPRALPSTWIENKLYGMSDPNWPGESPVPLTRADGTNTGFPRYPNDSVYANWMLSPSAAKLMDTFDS
T6 sequence (O14733 whole entry): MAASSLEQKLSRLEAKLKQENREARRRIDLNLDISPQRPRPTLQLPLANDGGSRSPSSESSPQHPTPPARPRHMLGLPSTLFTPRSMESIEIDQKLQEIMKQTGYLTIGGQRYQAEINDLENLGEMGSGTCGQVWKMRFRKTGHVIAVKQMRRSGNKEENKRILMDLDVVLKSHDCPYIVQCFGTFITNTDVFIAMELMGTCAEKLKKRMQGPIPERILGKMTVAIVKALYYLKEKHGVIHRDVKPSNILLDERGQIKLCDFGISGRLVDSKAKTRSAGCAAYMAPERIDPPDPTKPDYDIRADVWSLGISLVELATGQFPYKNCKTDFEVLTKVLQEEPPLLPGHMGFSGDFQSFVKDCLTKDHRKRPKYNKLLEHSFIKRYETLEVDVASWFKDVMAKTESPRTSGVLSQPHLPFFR
Sequence of EGFR(L747-T751del,Sins) (P00533 with tags, fused parts or gaps DEL747-750/T751S): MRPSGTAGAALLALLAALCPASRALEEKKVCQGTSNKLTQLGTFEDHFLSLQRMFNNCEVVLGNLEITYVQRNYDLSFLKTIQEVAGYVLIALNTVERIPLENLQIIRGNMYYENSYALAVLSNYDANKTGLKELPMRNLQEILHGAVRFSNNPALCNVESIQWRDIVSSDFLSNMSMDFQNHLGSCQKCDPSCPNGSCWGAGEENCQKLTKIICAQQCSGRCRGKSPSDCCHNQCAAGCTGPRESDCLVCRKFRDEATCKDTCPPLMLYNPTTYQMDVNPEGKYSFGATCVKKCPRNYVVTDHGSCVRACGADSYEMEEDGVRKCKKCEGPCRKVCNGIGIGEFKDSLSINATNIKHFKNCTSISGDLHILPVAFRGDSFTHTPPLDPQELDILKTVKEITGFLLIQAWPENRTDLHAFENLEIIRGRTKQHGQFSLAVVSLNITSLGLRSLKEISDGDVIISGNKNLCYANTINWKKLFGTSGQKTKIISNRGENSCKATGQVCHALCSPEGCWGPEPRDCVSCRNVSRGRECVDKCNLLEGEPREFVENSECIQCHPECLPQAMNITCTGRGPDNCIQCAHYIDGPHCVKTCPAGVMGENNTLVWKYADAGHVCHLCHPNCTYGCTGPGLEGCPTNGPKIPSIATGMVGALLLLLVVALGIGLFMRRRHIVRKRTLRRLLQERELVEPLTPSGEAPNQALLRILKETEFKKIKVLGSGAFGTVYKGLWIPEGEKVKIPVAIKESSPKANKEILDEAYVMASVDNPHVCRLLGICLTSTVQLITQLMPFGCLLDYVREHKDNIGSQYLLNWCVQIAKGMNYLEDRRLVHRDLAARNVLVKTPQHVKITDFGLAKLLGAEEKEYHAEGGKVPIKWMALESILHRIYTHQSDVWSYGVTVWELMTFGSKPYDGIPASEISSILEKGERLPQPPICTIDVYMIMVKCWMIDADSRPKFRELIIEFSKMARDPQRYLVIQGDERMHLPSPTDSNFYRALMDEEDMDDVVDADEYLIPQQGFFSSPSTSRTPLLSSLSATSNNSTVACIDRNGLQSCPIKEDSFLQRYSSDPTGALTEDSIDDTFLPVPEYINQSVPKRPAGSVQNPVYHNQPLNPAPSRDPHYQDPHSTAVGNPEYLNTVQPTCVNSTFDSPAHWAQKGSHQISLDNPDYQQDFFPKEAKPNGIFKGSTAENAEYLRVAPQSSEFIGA
T4 sequence (P27361 whole entry): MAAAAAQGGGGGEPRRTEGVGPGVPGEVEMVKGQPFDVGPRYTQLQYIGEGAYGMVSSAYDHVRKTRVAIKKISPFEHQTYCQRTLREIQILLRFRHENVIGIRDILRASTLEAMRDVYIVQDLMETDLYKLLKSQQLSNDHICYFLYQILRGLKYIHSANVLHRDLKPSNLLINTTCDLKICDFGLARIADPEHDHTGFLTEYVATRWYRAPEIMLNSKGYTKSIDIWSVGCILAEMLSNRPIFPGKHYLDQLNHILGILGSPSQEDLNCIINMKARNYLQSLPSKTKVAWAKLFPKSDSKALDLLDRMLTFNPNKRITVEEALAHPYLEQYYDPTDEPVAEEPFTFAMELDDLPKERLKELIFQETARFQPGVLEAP
Sequence of PIK3CA(C420R) (P42336 whole entry C420R): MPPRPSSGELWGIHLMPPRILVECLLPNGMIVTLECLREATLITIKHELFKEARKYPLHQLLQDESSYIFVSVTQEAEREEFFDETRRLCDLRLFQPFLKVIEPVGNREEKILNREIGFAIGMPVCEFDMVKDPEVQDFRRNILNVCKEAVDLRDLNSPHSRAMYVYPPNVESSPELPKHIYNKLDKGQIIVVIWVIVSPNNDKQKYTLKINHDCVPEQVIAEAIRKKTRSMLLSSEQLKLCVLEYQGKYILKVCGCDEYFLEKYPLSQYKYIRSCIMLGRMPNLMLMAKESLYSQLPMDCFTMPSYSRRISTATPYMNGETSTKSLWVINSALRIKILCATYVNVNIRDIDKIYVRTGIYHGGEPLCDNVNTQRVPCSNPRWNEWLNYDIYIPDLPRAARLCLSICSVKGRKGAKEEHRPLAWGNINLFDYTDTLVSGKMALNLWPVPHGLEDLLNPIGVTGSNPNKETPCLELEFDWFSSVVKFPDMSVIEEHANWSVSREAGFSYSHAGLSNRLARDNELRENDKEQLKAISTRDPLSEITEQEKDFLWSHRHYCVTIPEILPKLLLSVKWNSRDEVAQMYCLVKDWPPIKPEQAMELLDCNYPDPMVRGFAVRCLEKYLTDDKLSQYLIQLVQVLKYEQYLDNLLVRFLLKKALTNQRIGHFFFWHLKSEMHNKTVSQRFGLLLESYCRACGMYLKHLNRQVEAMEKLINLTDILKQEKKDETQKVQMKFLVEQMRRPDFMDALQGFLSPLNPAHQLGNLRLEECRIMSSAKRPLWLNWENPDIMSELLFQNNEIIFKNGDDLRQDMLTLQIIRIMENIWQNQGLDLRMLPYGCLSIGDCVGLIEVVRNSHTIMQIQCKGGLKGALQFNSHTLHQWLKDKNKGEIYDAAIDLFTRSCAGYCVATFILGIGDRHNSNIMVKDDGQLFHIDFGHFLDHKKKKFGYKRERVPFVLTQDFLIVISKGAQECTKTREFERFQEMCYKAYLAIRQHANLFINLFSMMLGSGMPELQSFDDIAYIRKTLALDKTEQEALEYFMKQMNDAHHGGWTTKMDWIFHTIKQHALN
Sequence of FGFR4 (P22455 whole entry): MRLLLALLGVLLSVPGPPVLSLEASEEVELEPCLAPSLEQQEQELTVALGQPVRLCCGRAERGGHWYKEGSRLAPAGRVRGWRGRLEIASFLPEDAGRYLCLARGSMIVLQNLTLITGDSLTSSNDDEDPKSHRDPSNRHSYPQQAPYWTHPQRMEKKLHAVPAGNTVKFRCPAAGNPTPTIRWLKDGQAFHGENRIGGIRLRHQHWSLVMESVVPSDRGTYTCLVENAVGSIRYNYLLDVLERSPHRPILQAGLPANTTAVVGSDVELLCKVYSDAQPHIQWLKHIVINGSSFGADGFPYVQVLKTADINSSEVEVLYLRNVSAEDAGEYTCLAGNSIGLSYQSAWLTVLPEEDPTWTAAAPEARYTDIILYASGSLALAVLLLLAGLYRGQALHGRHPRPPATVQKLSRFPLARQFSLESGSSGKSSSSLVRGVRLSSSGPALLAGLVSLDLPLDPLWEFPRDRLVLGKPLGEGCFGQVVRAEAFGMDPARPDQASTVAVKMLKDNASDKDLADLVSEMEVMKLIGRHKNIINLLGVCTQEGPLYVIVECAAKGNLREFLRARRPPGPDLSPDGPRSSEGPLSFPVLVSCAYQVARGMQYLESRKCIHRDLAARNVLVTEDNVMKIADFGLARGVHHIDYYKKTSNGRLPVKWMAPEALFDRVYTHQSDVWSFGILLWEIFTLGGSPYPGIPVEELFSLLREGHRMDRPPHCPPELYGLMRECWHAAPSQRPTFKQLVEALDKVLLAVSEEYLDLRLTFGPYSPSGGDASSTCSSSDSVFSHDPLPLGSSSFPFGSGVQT

- remaining activity at 1 µM [1]: 100%
- remaining activity at 1 µM (MAK): 95%
- remaining activity at 1 µM (DCAMKL2): 100%
- remaining activity at 1 µM (MAP4K5): 95%
- remaining activity at 1 µM (HASPIN): 100%
- remaining activity at 1 µM (EGFR(S752-I759del)): 82%
- remaining activity at 1 µM (EPHA4): 77%
- remaining activity at 1 µM (MAP3K3): 85%
- remaining activity at 1 µM (PRKX): 96%
- remaining activity at 1 µM (CSNK1G3): 72%
- remaining activity at 1 µM (EPHB1): 72%
- remaining activity at 1 µM (MERTK): 61%
- remaining activity at 1 µM (PRKG1): 81%
- remaining activity at 1 µM (CSNK1A1L): 69%
- remaining activity at 1 µM (TAOK1): 100%
- remaining activity at 1 µM (FGFR4): 85%
- remaining activity at 1 µM (DMPK): 100%
- remaining activity at 1 µM (IGF1R): 100%
- remaining activity at 1 µM (FLT3(D835V)): 48%
- remaining activity at 1 µM (NLK): 61%
- remaining activity at 1 µM (AAK1): 77%
- remaining activity at 1 µM (TIE1): 74%
- remaining activity at 1 µM (SLK): 71%
- remaining activity at 1 µM (EGFR(L747-T751del,Sins)): 97%
- remaining activity at 1 µM (RET(V804L)): 94%
- remaining activity at 1 µM (CDK2): 86%
- remaining activity at 1 µM (JNK3): 100%
- remaining activity at 1 µM (TESK1): 98%
- remaining activity at 1 µM (ERK1): 95%
- remaining activity at 1 µM (CAMK1G): 84%
- remaining activity at 1 µM (PYK2): 93%
- remaining activity at 1 µM (MKK7): 100%
- remaining activity at 1 µM (PIK3CA(C420R)): 97%
- remaining activity at 1 µM (FLT4): 96%
- remaining activity at 1 µM (PIKFYVE): 100%
SMILES: Cc1cn(-c2cc(NC(=O)c3ccc4c(c3)CN(c3cncnc3)C[C@@H]4C)cc(C(F)(F)F)c2)cn1 [Compound 6j]

From paper PMC5053573, “Structure-Based Design of Tetrahydroisoquinoline-7-carboxamides as Selective Discoidin Domain Receptor 1 (DDR1) Inhibitors” (Journal of Medicinal Chemistry, 2016)
